Experimental data reported in publication PMC2667487, “Cellular localization of kinin B1 receptor in the spinal cord of streptozotocin-diabetic rats with a fluorescent [N^α-Bodipy]-des-Arg^9-bradykinin” (Journal of Neuroinflammation, 2009).

Legend:
[1] = system: B1R in primary microglial cells; experiment: B1R induction and BdABK labeling in primary cultured microglial cells; assay type: cell-based, rat; conditions: 300 nM BK, 24 h
Method: Mixed glial cultures were prepared following the protocol of McCarthy and de Vellis with some modifications. Briefly, forebrains were dissected out from one litter of 2-day-old Sprague-Dawley rat pups and the meninges were stripped off before enzymatic and mechanical dissociation. For enzymatic dissociation, HBSS containing 0.25% trypsin (Gibco 15090-046) was used. The tissue-trypsin suspension was incubated for 20 min at 37°C in a water bath with intermittent shaking. After the waiting time for the trypsin digestion is over we added to the tissue-trypsin suspension a mixture of prewarmed DMEM/Dnase I (Sigma DN-25, Dnase I final concentration 0. 25 mg/ml) followed by an incubation for 4 min at 37°C. The resulting suspension was dispersed by a mild mechanical trituration which consisted in the passage through 18-, 22- and 25- gauge needles. This cell suspension was then filtred through 70 μm strainer (BD Falcon 352350). After extensive washs in prewarmed HBSS, these dissociated cells were resuspended and plated in 75-cm^2 Falcon tissue-culture flasks (BD Biosciences) previously coated with 10 μg/ml poly-D-lysine (PDL). These mixed cells were growing at 37°C and 5% CO2 in DMEM (Gibco) supplemented with 10% FBS, penicillin (100 units/ml), and streptomycin ([…]). The media was changed every 2 or 3 days thereafter. […]

[2] = system: B1R in primary microglial cells; conditions: cited from earlier work
Text: (§1) NF-κB upregulates B1R upon binding to its nuclear promoter.

B2 receptors = conditions: via B2 receptors, protein kinase C; cited from earlier work
Text: as §1

BK: bradykinin, preferential B2R agonist; used to induce B1R in microglia (RPPGFSPFR; Bradykinin; UniProt P01042 381-389, looked up)
induction of B1R in primary microglial cells [1]: B1R was induced | B1R expression in cultured rat microglia exposed to BK [2]: B1R can be expressed in cultured rat microglia | intracellular calcium and NF-κB activation (B2 receptors): induces elevation of intracellular calcium leading to the phosphorylation and activation of NF-κB
